Source: PubChem BioAssay AID294 (DTP/NCI, 2004)
Where “and” joins values, the source holds several entries; their conditions need not be identical. Equal entries are not always repeated.

Tested on: MX-1 breast xenograft, nude mice, tumor weight change
Assay: NCI In Vivo Anticancer Drug Screen. Data for tumor model Human Mammary Carcinoma MX-1 Xenograft (subcutaneous) in NU/NU Swiss (nude) mice
Settings: endpoint: optimum tumor weight change, higher = larger tumour
Protocol: The antitumor activity of compounds was measured in mice bearing transplantable tumors. Survival or tumor size were measured and the results are expressed as the measurement made in the treated group (T) divided by the measurement made in the vehicle treated control group (C). The tumor model used in this assay is Human Mammary Carcinoma MX-1 Xenograft (subcutaneous) in NU/NU Swiss (nude) mice

[1] = dose: 4.0 mg/kg/injection, schedule: Q04DX003 (ip), vehicle: saline
[2] = dose: 8.0 mg/kg/injection, schedule: Q04DX003 (ip), vehicle: saline
[3] = dose: 3.13 mg/kg/injection, schedule: Q04DX003 (ip), vehicle: saline
[4] = dose: 50.0 mg/kg/injection, schedule: Q04DX003 (ip), vehicle: Klucel (hydroxypropylcellulose) (HPC)
[5] = dose: 100.0 mg/kg/injection, schedule: Q04DX003 (ip), vehicle: Klucel (hydroxypropylcellulose) (HPC)
[6] = dose: 400.0 mg/kg/injection, schedule: Q04DX003 (ip), vehicle: Klucel (hydroxypropylcellulose) (HPC)
[7] = dose: 12.5 mg/kg/injection, schedule: Q04DX003 (ip), vehicle: saline
[8] = dose: 25.0 mg/kg/injection, schedule: Q04DX003 (ip), vehicle: saline

With Cc1c(N)nc(C(CC(N)=O)NCC(N)C(N)=O)nc1C(=O)NC(C(=O)NC(C)C(O)CC(=O)NC(C(=O)NC(OC1OC(C)C(N)C(O)C1O)C(O)c1nc(-c2nc(C(=O)NCCCC(N)CC(=O)NCCCNCCCCN)cs2)cs1)C(C)O)C(OC1OC(CO)C(O)C(O)C1OC1OC(CO)C(O)C(OC(N)=O)C1O)c1cnc[nH]1 (stereo unspecified) the T/C [1] was 28 % of control and the T/C [2] was 11 % of control.

With CC(C)CCCCCCCCCCCCC(=O)NCC(=O)NC1C(O)C(O)C(Nc2ncnc3nc[nH]c23)OC1C(O)CO (stereo unspecified) the T/C (dose: 3.0 mg/kg/injection, schedule: Q04DX003 (ip), vehicle: suspension in saline) was 91 % of control, the T/C (dose: 6.0 mg/kg/injection, schedule: Q04DX003 (ip), vehicle: suspension in saline) was 109 % of control and the T/C (dose: 12.0 mg/kg/injection, schedule: Q04DX003 (ip), vehicle: suspension in saline) was 30 % of control.

Cc1cc(N(CC(C)Br)CC(C)Br)ccc1N=Nc1ccccc1C(=O)O (stereo unspecified) was tested, and the T/C (dose: 3.13 mg/kg/injection, schedule: Q04DX003 (ip), vehicle: saline with Tween-80) was 75 % of control, the T/C (dose: 6.25 mg/kg/injection, schedule: Q04DX003 (ip), vehicle: saline with Tween-80) was 73 % of control and the T/C (dose: 12.5 mg/kg/injection, schedule: Q04DX003 (ip), vehicle: saline with Tween-80) was 61 % of control.

With N=C(N)SCc1c2ccccc2c(CSC(=N)N)c2ccccc12 the T/C (dose: 25.0 mg/kg/injection, schedule: Q04DX003 (ip), vehicle: suspension in saline) was 83 % of control and the T/C (dose: 50.0 mg/kg/injection, schedule: Q04DX003 (ip), vehicle: suspension in saline) was 123 % of control.

In the case of Cc1c(N)nc(C(CC(N)=O)NCC(N)C(N)=O)nc1C(=O)NC(C(=O)NC(C)C(O)C(C)C(=O)NC(C(=O)NCCc1nc(-c2nc(C(=O)NCCCNC(C)c3ccccc3)cs2)cs1)C(C)O)C(OC1OC(CO)C(O)C(O)C1OC1OC(CO)C(O)C(OC(N)=O)C1O)c1cnc[nH]1 (stereo unspecified), the T/C (dose: 7.5 mg/kg/injection, schedule: Q04DX003 (ip), vehicle: saline) is reported as 43 % of control and 50 % of control, the T/C (dose: 30.0 mg/kg/injection, schedule: Q04DX003 (ip), vehicle: saline) is reported as 18 % of control and 22 % of control and the T/C (dose: 60.0 mg/kg/injection, schedule: Q04DX003 (ip), vehicle: saline) is reported as 17 % of control.

OC(C1CO1)C(O)C1CO1 (stereo unspecified) was tested, and the T/C (dose: 1.0 mg/kg/injection, schedule: Q04DX003 (ip), vehicle: saline) was 70 % of control.

For O=C(NO)c1ccccc1, the T/C (dose: 25.0 mg/kg/injection, schedule: Q01DX003 (ip), vehicle: saline) was 82 % of control, the T/C (dose: 50.0 mg/kg/injection, schedule: Q01DX003 (ip), vehicle: saline) was 108 % of control and the T/C (dose: 100.0 mg/kg/injection, schedule: Q01DX003 (ip), vehicle: saline) was 42 % of control.

C=CC(=O)NCNC(=O)C=C was tested, and the T/C (dose: 100.0 mg/kg/injection, schedule: Q04DX003 (ip), vehicle: suspension in saline) was 101 % of control and the T/C (dose: 200.0 mg/kg/injection, schedule: Q04DX003 (ip), vehicle: suspension in saline) was 84 % of control.

For OCC1OC(n2cnc3c2NC=NC[C@H]3O)CC1O (stereo partly specified), the T/C (dose: 4.0 mg/kg/injection, schedule: Q04DX003 (ip), vehicle: water) was 77 % of control, the T/C (dose: 8.0 mg/kg/injection, schedule: Q04DX003 (ip), vehicle: water) was 78 % of control and the T/C (dose: 16.0 mg/kg/injection, schedule: Q04DX003 (ip), vehicle: water) was 49 % of control.

With COc1cc([C@@H]2c3cc4c(c(O)c3C[C@H]3COC(=O)[C@@H]32)OCO4)cc(OC)c1O the T/C [3] was 92 % of control and the T/C (dose: 6.25 mg/kg/injection, schedule: Q04DX003 (ip), vehicle: saline) was 57 % of control.

In the case of Cc1c(N)nc([C@H](CC(N)=O)NC[C@H](N)C(N)=O)nc1C(=O)N[C@H](C(=O)N[C@H](C)[C@@H](O)CC(=O)N[C@H](C(=O)NC(O[C@@H]1O[C@@H](C)[C@@H](N)[C@@H](O)[C@H]1O)C(O)c1nc(-c2nc(C(=O)NCCCCN)cs2)cs1)[C@@H](C)O)[C@@H](O[C@@H]1O[C@@H](CO)[C@@H](O)[C@H](O)[C@@H]1O[C@H]1O[C@H](CO)[C@@H](O)[C@H](OC(N)=O)[C@@H]1O)c1c[nH]cn1 (stereo partly specified), the T/C (dose: 2.0 mg/kg/injection, schedule: Q04DX003 (ip), vehicle: saline) is reported as 84 % of control, the T/C [1] is reported as 47 % of control and the T/C [2] is reported as 42 % of control. For the same compound, the T/C (dose: 32.0 mg/kg/injection, schedule: Q04DX003 (ip), vehicle: saline) was 7 % of control and 21 % of control and 29 % of control and the T/C (dose: 64.0 mg/kg/injection, schedule: Q04DX003 (ip), vehicle: saline) was 32 % of control.

With CN(C)N=Nc1cccc(C(N)=O)c1 the T/C [4] was 102 % of control, the T/C [5] was 87 % of control and the T/C [6] was 81 % of control.

CNC(=O)ON(C(C)=O)C(=O)NC was tested, and the T/C [7] was 81 % of control and the T/C [8] was 108 % of control.

For C=C(C)[C@H]1Cc2c(ccc3c2O[C@@H]2COc4cc(OC)c(OC)cc4[C@@H]2C3=O)O1, the T/C [3] was 66 % of control, the T/C [7] was 86 % of control and the T/C [8] was 76 % of control.

In the case of CN(C)N=Nc1cn[nH]c1C(N)=O, the T/C [4] is reported as 100 % of control, the T/C [5] is reported as 98 % of control and the T/C (dose: 200.0 mg/kg/injection, schedule: Q04DX003 (ip), vehicle: Klucel (hydroxypropylcellulose) (HPC)) is reported as 71 % of control. For the same compound, the T/C [6] was 82 % of control.
